Measured values from ChEMBL document CHEMBL1128762, “The design of polar -turn dipeptide mimetics” (Bioorg Med Chem Lett, 1995).
Positions of bridges follow the written chain, without caps; N, C: chain ends. Non-standard residues stand in square brackets, D forms with d. Residues, ends and D or L forms follow the SMILES beside them. *: point of attachment. Cbz = O=C(OCc1ccccc1)*; Dap = NC[C@H](N)C(=O)O

Columns and labels:
Neuromedin-K receptor = target: T1, Neuromedin-K receptor (Homo sapiens, UniProt P29371); assay: Binding affinity towards Tachykinin receptor 3 using [125I]-[Mephe7] NKB as radioligand
T1 sequence (P29371 whole entry): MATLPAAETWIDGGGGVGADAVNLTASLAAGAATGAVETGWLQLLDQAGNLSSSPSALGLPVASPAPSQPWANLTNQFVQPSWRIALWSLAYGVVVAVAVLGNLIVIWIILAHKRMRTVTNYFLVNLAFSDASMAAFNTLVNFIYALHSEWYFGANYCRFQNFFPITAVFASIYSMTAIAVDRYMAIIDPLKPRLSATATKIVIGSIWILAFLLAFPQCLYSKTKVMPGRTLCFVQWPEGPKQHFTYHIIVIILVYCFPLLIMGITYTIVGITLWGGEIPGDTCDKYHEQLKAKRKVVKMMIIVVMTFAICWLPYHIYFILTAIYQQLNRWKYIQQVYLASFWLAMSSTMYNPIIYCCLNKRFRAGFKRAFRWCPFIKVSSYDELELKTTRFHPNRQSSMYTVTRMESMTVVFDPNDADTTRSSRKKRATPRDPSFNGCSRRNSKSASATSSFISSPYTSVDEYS

Substance-K receptor = target: T2, Substance-K receptor (Mesocricetus auratus, UniProt P51144); assay: Binding affinity towards Tachykinin receptor 2 using [125I]iodohistidyl-NKA (0.1 nM)) as radioligand; design: species or system Cricetulus griseus
T2 sequence (P51144 whole entry): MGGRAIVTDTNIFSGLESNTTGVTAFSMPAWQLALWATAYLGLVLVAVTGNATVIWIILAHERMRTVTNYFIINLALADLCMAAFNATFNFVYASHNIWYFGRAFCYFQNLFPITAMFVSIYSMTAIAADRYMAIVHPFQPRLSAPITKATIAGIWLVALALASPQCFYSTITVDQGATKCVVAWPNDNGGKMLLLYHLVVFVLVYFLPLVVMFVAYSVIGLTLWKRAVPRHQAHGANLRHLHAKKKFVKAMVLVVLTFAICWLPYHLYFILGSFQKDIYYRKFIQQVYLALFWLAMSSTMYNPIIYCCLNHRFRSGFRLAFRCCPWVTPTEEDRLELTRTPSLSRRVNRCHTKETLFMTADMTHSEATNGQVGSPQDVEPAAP

Compound | IC50 (Neuromedin-K receptor) [µM] | IC50 (Substance-K receptor) [µM]
O=C(Cc1ccccc1)N1CCC(Cc2ccccc2)C1 (stereo unspecified) | 9.4 | –
O=C(Cc1c[nH]c2ccccc12)N1CCC(Cc2ccccc2)C1 (stereo unspecified) | – | > 10
NC(=O)[C@H](Cc1ccccc1)NC(=O)[C@H](Cc1c[nH]c2ccccc12)NC(=O)OCc1ccccc1 (Cbz-Trp-Phe-NH2) | 9.3 | 5.2
CSCC[C@@H]1NC(=O)[C@H](CC(C)C)NC(=O)[C@@H]2CNC(=O)C[C@H](NC1=O)C(=O)N[C@@H](Cc1c[nH]c3ccccc13)C(=O)N[C@@H](Cc1ccccc1)C(=O)N2 (cyclo(DWF[Dap]LM); lactam 1-4) | – | > 10
Ac-LMQWFG-OH | – | 19.8
